Experiments:
[1] = biological target: muscarinic acetylcholine receptors; experiment: inhibition of specific binding of ^3 H-Oxotremorine-M (^3 H-Oxo); design: species or system rat (male Wistar; settings: ^3 H-Oxotremorine 1.0 nM, rat cortex, 30 min. at 25° C.
Method in brief: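 Rat cortex membranes (male Wistar) in 20 mM Hepes pH 7.4 incubated with 1.0 nM ^3H-Oxotremorine-M (final) and test compound for 30 min at 25 °C; arecoline defines non-specific binding. Bound radioactivity by filtration and scintillation counting; IC50 (nM) from a single concentration via Co/Cx mass-action formula, reflecting high- and medium-affinity sites.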

[2] = biological target: T1, muscarinic receptors (M1 -site, pirenzepine sensitive site) (Rattus norvegicus, UniProt P08482); experiment: inhibition of ^3 HPRZ (pirenzepine, [N-methyl-^3 H]) binding to rat cerebral cortex membranes; design: species or system rat (male Wistar; settings: ^3 HPRZ 1.0 nM, rat cortex, 60 min. at 20° C.; read-out: ^3 HPRZ IC50 (head from b208 on: Pir IC-50)
T1 construct: from tissue; host or cells: cerebral cortex membranes of male Wistar rats
T1 sequence (P08482 1-460): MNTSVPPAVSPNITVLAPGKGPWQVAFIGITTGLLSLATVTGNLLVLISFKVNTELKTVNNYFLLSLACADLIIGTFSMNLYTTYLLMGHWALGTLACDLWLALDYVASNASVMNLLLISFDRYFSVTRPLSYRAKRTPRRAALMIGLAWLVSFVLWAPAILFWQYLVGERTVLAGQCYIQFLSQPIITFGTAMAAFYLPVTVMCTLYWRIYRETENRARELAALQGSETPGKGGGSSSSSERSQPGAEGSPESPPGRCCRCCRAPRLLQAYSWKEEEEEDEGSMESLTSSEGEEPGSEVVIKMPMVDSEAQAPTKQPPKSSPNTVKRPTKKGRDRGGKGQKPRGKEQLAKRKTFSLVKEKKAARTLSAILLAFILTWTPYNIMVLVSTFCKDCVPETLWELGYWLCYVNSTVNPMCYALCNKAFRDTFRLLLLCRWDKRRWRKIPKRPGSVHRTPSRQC
Method in brief: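 Male Wistar rat cortex membranes in 20 mM Hepes pH 7.4 were incubated with 1.0 nM (final) [3H]pirenzepine for 60 min at 20° C; nonspecific binding was defined with 1 μg/mL atropine. Filtration and scintillation counting were used, and IC50 was calculated from a single concentration assuming mass-action kinetics.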

IC50 [1] [nM]	IC50 [2] [nM]	SMILES
2.73	6.42	CCCCCCOc1nsnc1O[C@@H]1CN2CCC[C@H]1C2 (relative stereo) [Compound 136, (±)-endo-3-Hexyloxy-4-(1-azabicyclo[3.2.1]octyl-6-oxy)-1,2,5-thiadiazole]
775	> 1000	CCCCSc1nsnc1O[C@@H]1CNC[C@H]1O (relative stereo) [Compound 146, (±)-trans-3-Butylthio-4-(4-hydroxy-pyrollidin-3-oxy)-1,2,5-thiadiazole]
1	0.6	c1ccc(OCCSc2nsnc2O[C@@H]2CN3CCC[C@H]2C3)cc1 (relative stereo) [Compound 156, (±)-endo-3-(2-Phenoxyethylthio)-4-(1-azabicyclo[3.2.1]octyl-6-oxy)-1,2,5-thiadiazole]
1	6.4	CC#CCOc1nsnc1O[C@@H]1CN2CCC[C@H]1C2 (relative stereo) [Compound 168]
1	1.9	C/C=C/COc1nsnc1O[C@@H]1CN2CCC[C@H]1C2 (relative stereo) [Compound 169, (±)-endo-3-(trans-2-Butenyloxy)-4-(1-azabicyclo[3.2.1]octyl-6-oxy)-1,2,5-thiadiazole]
1.5	3	CSCCOc1nsnc1O[C@@H]1CN2CCC[C@H]1C2 (relative stereo) [Compound 170, (±)-endo-3-(2-Methylthioethoxy)-4-(1-azabicyclo[3.2.1]octyl-6-oxy)-1,2,5-thiadiazole]
19	27	Cc1ncsc1CCOc1nsnc1O[C@@H]1CN2CCC[C@H]1C2 (relative stereo) [Compound 171, (±)-endo-3-(2-(4-Methyl-1,3-thiazol-5-yl)ethoxy)-4-(1-azabicyclo[3.2.1]octyl-6-oxy)-1,2,5-thiadiazole]
5.2	10	CSc1ccc(COc2nsnc2O[C@@H]2CN3CCC[C@H]2C3)cc1 (relative stereo) [Compound 172, (±)-endo-3-(4-Methylthiobenzyloxy)-4-(1-azabicyclo[3.2.1]octyl-6-oxy)-1,2,5-thiadiazole]
1	1.4	c1csc(COc2nsnc2O[C@@H]2CN3CCC[C@H]2C3)c1 (relative stereo) [Compound 173, (±)-endo-3-(2-Thienylmethoxy)-4-(1-azabicyclo[3.2.1]octyl-6-oxy)-1,2,5-thiadiazole]
0.74	2.7	CC#CCCOc1nsnc1O[C@@H]1CN2CCC[C@H]1C2 (relative stereo) [Compound 175, (±)-endo-3-(3-Pentynyloxy)-4-(1-azabicyclo[3.2.1]octyl-6-oxy)-1,2,5-thiadiazole]
1.3	3	CCC#CCCOc1nsnc1O[C@@H]1CN2CCC[C@H]1C2 (relative stereo) [Compound 176, (±)-endo-3-(3-Hexynyloxy)-4-(1-azabicyclo[3.2.1]octyl-6-oxy)-1,2,5-thiadiazole]
1.1	2	ClCCCOc1nsnc1O[C@@H]1CN2CCC[C@H]1C2 (relative stereo) [Compound 177, (±)-endo-3-(3-Chloropropoxy)-4-(1-azabicyclo[3.2.1]octyl-6-oxy)-1,2,5-thiadiazole]
15	61	c1ccc2cc(CCOc3nsnc3O[C@@H]3CN4CCC[C@H]3C4)ccc2c1 (relative stereo) [Compound 178, (±)-endo-3-[2-(2-Napthyl)ethoxy]-4-(1-azabicyclo[3.2.1]octyl-6-oxy)-1,2,5-thiadiazole]

SMILES	IC50 [1] [nM]	IC50 [2] [nM]
CCCCOc1nsnc1O[C@H]1C[C@@H]2CC[C@H]1N2 (relative stereo) [Compound 133, (±)-exo-3-Butyloxy-4-(7-azabicyclo[2.2.1]heptyl-3-oxy)-1,2,5-thiadiazole]	> 1000	> 1000
FC(F)(F)CCCOc1nsnc1O[C@@H]1CN2CCC[C@H]1C2 (relative stereo) [Compound 167, (±)-endo-3-(4,4,4-Trifluorobutoxy)-4-(1-azabicyclo[3.2.1]octyl-6-oxy)-1,2,5-thiadiazole]	2.8	2

— patent US5665745A, “Heterocyclic compounds and their preparation and use” (Eli Lilly and Company, priority 1995, dated 1997)
